In US20210009613A1, “ARYLPHOSPHINE OXIDES FOR INHIBITING KINASE ACTIVITY” (Shenzhen TargetRx, Inc., priority 2017, published 2021):

Assays:
ALK [WT] = ALK [WT] (Homo sapiens, UniProt Q9UM73); assay: Kinase inhibition assay, ALK [WT]; assay type: biochemical
Protocol: (§1) Compound preparation: The test compounds were dissolved in DMSO to make 20 mM stock solutions. The compounds were diluted in DMSO to 0.1 mM (a dilution with 100 times the final concentration) before use, and a 3-fold series gradient dilution with 11 concentrations was made. Dilutions with 4 times of the final concentration were prepared by diluting with buffer when dosing.
(§2) Kinase assay: after preparing the buffer solution, the enzyme was mixed with pre-diluted compounds with different concentrations, and placed at room temperature for 30 minutes in duplicate. The corresponding substrate and ATP were added thereto and reacted at room temperature for 60 minutes (both a negative and a positive control were set). After the reaction, antibody was added for detection, and after incubation at room temperature for 60 minutes, Evnvision detection was carried out, and data was collected. Data was analyzed and fit according to XLfit5 software. IC50 was calculated by the following formula: (IC50=[(ABS test-ABS begin)/(ABS control-ABS begin)]×100).

Ba/F3 [EML4-ALK L1196M] [1] = assay: Cytotoxicity test (CellTiter-Glo), Ba/F3 [EML4-ALK L1196M]; assay type: cell-based; conditions: ratio of Ba/F3 IC50 values
Protocol: (§3) The in vitro anti-proliferative activity of the compounds of the present disclosure against three types of cells that are cultured in vitro was tested by CellTiter-Glo method.
(§4) Cell lines: Ba/F3 parental; Ba/F3 [EML4-ALK] (From WuXi PharmaTech) and Ba/F3 [EML4-ALK L1196M] (From WuXi PharmaTech); wherein, Ba/F3 parental was cultured in RPMI1640 medium containing 10 ng/ml IL-3, […], 100 U/ml penicillin, and 100 μg/ml streptomycin, Ba/F3 [EML4-ALK] and Ba/F3 [EML4-ALK L1196M] were cultured in RPMI1640 medium containing 10% fetal bovine serum, 100 U/ml penicillin, and 100 μg/ml streptomycin.
(§5) Reagents and materials: RPMI-1640 (GIBCO, Cat. No. A10491-01); fetal bovine serum (GIBCO, Cat. No. 10099141); 0.25% trypsin-EDTA (GIBCO, Cat. No. 25200); penicillin-streptomycin, liquid (GIBCO, Cat. No. 15140-122); DMSO (Sigma, Cat. No. D2650); CellTiter-Glo Test Kit (Promega, Cat. No. G7572), and 96-well plate (Corning, Cat. No. 3365).
(§6) Specific experimental procedures: • 1. The test compounds were dissolved in DMSO to make stock solutions and subjected to a series gradient dilution to give solutions with 10-fold working concentration. • 2. The cells in the logarithmic growth phase were diluted with the culture solution to adjust to the specific cell concentration, 90 μl of cell suspension was added to the 96-well plate to make the cell density reach the specified concentration. The plate was incubated in a incubator at 37° C., containing 5% carbon dioxide gas overnight. • 3. 10 μl drug solutions were added to each well of the 96-well plate inoculated with cells. 10 concentrations of the compounds were tested starting from the highest concentration of 20 μM with a 3-fold series gradient dilution in duplicate. • 4. After continuously cultured for 72 hours, the cells were detected by CellTiter-Glo for the cell viability. The dose-effect curve was made using GraphPad Prism software and IC50 was calculated.

Ba/F3 [EML4-ALK L1196M] [2] = biological target: T1, Ba/F3 [EML4-ALK L1196M] (Homo sapiens, UniProt Q9UM73, L1196M, cells depend on it); assay: as above; assay type: cell-based; conditions: 72 hours, CellTiter-Glo; read-out: IC50(nM) ALK[L1196M] (Ba/F3)
T1 construct: IC50(nM) ALK[L1196M]; (Ba/F3); other: 72 hours, CellTiter-Glo; Ba/F3 [EML4-ALK L1196M]; fused on or other part: Q9HC35 (Echinoderm microtubule-associated protein-like 4)
T1 sequence (Q9UM73 whole entry L1196M, the tested form may be a part): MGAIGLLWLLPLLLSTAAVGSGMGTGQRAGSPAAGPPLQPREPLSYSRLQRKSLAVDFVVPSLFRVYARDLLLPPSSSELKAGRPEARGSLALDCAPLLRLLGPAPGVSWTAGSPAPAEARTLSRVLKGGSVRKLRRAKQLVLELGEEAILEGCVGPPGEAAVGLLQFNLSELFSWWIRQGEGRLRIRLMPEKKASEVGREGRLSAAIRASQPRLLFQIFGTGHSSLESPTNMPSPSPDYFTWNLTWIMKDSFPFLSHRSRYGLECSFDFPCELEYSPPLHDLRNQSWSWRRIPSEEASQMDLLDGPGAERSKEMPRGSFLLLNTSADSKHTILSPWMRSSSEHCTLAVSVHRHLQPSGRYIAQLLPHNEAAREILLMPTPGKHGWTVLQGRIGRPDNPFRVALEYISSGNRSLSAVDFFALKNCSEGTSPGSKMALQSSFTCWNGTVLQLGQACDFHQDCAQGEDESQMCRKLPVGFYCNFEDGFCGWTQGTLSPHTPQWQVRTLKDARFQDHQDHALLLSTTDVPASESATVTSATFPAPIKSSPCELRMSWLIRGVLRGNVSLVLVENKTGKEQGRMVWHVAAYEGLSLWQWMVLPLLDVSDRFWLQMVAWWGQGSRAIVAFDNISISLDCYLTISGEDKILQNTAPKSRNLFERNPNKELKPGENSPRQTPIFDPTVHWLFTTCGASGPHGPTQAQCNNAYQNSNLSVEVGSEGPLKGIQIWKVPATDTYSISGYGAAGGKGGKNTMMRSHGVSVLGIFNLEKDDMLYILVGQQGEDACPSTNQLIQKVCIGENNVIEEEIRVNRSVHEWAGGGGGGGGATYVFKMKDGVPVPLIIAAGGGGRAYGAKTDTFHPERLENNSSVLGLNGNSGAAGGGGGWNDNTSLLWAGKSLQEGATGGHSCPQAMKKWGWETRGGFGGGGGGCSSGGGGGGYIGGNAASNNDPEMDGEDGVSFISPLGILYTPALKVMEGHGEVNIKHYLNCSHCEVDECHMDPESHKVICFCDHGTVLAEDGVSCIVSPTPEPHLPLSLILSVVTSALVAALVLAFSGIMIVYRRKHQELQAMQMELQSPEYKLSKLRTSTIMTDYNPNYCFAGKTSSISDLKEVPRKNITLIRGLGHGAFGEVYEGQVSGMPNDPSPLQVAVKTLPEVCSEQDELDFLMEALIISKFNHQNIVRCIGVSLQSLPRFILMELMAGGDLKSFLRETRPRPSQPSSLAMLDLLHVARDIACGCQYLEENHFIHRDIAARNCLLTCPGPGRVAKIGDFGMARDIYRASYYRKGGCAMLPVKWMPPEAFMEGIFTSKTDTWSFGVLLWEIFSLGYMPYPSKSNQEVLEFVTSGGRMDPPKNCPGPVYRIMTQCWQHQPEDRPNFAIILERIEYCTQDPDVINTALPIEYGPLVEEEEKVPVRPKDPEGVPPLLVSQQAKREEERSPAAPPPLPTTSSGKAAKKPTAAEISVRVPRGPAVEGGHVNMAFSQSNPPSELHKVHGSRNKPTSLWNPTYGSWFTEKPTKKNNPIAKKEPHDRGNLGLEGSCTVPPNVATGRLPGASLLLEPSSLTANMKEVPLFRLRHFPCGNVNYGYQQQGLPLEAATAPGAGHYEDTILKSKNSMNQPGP
Protocol: as §3, §4, §5, §6

ALK [L1196M] = ALK [L1196M] (Homo sapiens, UniProt Q9UM73, L1196M); assay: Kinase inhibition assay, ALK [L1196M]; assay type: biochemical
Sequence of ALK [L1196M] (Q9UM73 19-1620 L1196M): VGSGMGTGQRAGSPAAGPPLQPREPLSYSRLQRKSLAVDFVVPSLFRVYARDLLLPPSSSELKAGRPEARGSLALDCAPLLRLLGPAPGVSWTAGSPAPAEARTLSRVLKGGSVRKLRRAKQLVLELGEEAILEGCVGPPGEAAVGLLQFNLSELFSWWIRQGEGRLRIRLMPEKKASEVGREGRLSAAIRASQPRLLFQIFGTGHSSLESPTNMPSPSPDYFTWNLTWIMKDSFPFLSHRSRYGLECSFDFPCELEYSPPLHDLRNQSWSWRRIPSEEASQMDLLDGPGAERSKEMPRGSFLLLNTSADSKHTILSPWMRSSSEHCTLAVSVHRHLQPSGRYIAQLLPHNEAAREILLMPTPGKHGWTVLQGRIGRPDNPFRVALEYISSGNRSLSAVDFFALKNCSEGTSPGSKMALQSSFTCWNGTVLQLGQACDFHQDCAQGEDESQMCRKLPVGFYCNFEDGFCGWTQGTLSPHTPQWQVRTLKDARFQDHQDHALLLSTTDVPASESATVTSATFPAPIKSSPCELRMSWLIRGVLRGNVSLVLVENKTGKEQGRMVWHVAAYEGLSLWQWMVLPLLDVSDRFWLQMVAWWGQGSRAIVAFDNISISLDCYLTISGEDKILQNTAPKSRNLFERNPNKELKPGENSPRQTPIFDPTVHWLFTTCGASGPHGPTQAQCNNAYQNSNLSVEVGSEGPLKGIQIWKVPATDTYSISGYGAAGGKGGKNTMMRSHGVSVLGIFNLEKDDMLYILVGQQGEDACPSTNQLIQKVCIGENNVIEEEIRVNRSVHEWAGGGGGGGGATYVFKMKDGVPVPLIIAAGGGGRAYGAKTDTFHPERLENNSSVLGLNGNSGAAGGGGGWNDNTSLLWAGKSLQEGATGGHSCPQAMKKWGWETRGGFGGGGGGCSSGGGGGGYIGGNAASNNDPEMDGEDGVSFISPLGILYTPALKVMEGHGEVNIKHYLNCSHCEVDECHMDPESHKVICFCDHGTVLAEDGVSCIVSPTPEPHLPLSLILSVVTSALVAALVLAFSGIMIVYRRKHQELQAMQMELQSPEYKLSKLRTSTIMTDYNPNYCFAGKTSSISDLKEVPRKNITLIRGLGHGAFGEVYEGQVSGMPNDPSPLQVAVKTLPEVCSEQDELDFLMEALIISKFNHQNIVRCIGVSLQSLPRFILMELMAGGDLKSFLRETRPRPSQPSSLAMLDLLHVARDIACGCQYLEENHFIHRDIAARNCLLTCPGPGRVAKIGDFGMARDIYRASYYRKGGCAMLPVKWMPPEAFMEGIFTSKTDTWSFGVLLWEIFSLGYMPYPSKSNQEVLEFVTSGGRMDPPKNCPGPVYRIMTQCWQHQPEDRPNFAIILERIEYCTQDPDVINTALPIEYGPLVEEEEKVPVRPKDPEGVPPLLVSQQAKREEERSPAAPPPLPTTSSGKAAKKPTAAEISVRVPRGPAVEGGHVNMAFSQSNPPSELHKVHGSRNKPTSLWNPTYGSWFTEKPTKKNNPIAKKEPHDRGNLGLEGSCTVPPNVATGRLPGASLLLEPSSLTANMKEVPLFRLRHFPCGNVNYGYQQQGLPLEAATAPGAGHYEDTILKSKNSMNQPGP
Protocol: as §1, §2

Ba/F3 parental = assay: Cytotoxicity test (CellTiter-Glo), Ba/F3 parental; assay type: cell-based; conditions: Mus musculus, BaF3, 72 hours
Protocol: as §3, §4, §5, §6

Ba/F3 [EML4-ALK] [3] = assay: Cytotoxicity test (CellTiter-Glo), Ba/F3 [EML4-ALK]; assay type: cell-based; conditions: ratio of Ba/F3 IC50 values
Protocol: as §3, §4, §5, §6

Ba/F3 [EML4-ALK] [4] = biological target: T2, Ba/F3 [EML4-ALK] (Homo sapiens, UniProt Q9UM73); assay: as above; assay type: cell-based; conditions: 72 hours, CellTiter-Glo; read-out: IC50(nM) ALK (Ba/F3)
T2 construct: IC50(nM) ALK (Ba/F3); other: 72 hours, CellTiter-Glo; Ba/F3 [EML4-ALK]; fused on or other part: Q9HC35 (Echinoderm microtubule-associated protein-like 4)
T2 sequence (Q9UM73 whole entry, change not shown, the tested form may be a part): as the sequence (Q9UM73 whole entry L1196M, the tested form may be a part) above, with M1196L counted along it
Protocol: as §3, §4, §5, §6

Sequence of ALK [WT] (Q9UM73 19-1620): as the sequence (Q9UM73 19-1620 L1196M) above, with M1178L counted along it

COc1nc(N2CCC(N(C)C)CC2)ccc1Nc1ncc(Cl)c(Nc2ccccc2P(C)(C)=O)n1 [Example 1, (2-((5-chloro-2-((6-(4-(dimethylamino)piperidin-1-yl)-2-methoxypyridin-3-)amino)pyrimidin-4-yl)amino)phenyl)dimethylphosphine oxide]
IC50 (ALK [WT]): ≤ 5 nM | Selectivity parental/ALK[L1196M] (Ba/F3 [EML4-ALK L1196M] [1]): 0~50 | GI50 (Ba/F3 [EML4-ALK L1196M] [2]): 50 to 100 nM | IC50 (ALK [L1196M]): 5 to 10 nM | IC50 (Ba/F3 parental): ≥ 1000 nM | Selectivity parental/ALK (Ba/F3 [EML4-ALK] [3]): 50~100 | GI50 (Ba/F3 [EML4-ALK] [4]): ≤ 50 nM

COc1nc(N2CCN(C)CC2)ccc1Nc1ncc(Cl)c(Nc2ccccc2P(C)(C)=O)n1 [Example 2, (2-((5-chloro-2-((2-methoxy-6-(4-methylpiperazin-1-yl)pyridin-3-yl)amino)pyrimidin-4-yl)amino)phenyl)dimethylphosphine oxide]
IC50 (ALK [WT]): ≤ 5 nM | Selectivity parental/ALK[L1196M] (Ba/F3 [EML4-ALK L1196M] [1]): 0~50 | GI50 (Ba/F3 [EML4-ALK L1196M] [2]): 50 to 100 nM | IC50 (ALK [L1196M]): ≤ 5 nM | IC50 (Ba/F3 parental): ≥ 1000 nM | Selectivity parental/ALK (Ba/F3 [EML4-ALK] [3]): 50~100 | GI50 (Ba/F3 [EML4-ALK] [4]): ≤ 50 nM

COc1nc(N(C)CCN(C)C)ccc1Nc1ncc(Cl)c(Nc2ccccc2P(C)(C)=O)n1 [Example 3, (2-((5-chloro-2-((6-((2-(dimethylamino)ethyl)(methyl)amino)-2-methoxypyridin-3-yl)amino)pyrimidin-4-yl)amino)phenyl)dimethylphosphine oxide]
IC50 (ALK [WT]): ≤ 5 nM | Selectivity parental/ALK[L1196M] (Ba/F3 [EML4-ALK L1196M] [1]): 50~100 | GI50 (Ba/F3 [EML4-ALK L1196M] [2]): 50 to 100 nM | IC50 (ALK [L1196M]): 5 to 10 nM | IC50 (Ba/F3 parental): ≥ 1000 nM | Selectivity parental/ALK (Ba/F3 [EML4-ALK] [3]): 100~200 | GI50 (Ba/F3 [EML4-ALK] [4]): ≤ 50 nM

COc1nc(N2CCC(N3CCN(C)CC3)CC2)ccc1Nc1ncc(Cl)c(Nc2ccccc2P(C)(C)=O)n1 [Example 4, (2-((5-chloro-2-((2-methoxy-6-(4-(4-methylpiperazin-1-yl)piperidin-1-yl)pyridin-3-yl)amino)pyrimidin-4-yl)amino)phenyl)dimethylphosphine oxide]
IC50 (ALK [WT]): 5 to 10 nM | Selectivity parental/ALK[L1196M] (Ba/F3 [EML4-ALK L1196M] [1]): 0~50 | GI50 (Ba/F3 [EML4-ALK L1196M] [2]): 50 to 100 nM | IC50 (ALK [L1196M]): 5 to 10 nM | IC50 (Ba/F3 parental): ≥ 1000 nM | Selectivity parental/ALK (Ba/F3 [EML4-ALK] [3]): 50~100 | GI50 (Ba/F3 [EML4-ALK] [4]): ≤ 50 nM

CC(C)Oc1nc(N2CCC(N(C)C)CC2)ccc1Nc1ncc(Cl)c(Nc2ccccc2P(C)(C)=O)n1 [Example 5, (2-((5-chloro-2-((6-(4-(dimethyaminono)piperidin-1-yl)-2-isopropoxypyridin-3-yl)amino)pyrimidin-4-yl)amino)phenyl)dimethylphosphine oxide]
IC50 (ALK [WT]): 5 to 10 nM | Selectivity parental/ALK[L1196M] (Ba/F3 [EML4-ALK L1196M] [1]): 50~100 | GI50 (Ba/F3 [EML4-ALK L1196M] [2]): 50 to 100 nM | IC50 (ALK [L1196M]): ≤ 5 nM | IC50 (Ba/F3 parental): ≥ 1000 nM | Selectivity parental/ALK (Ba/F3 [EML4-ALK] [3]): 100~200 | GI50 (Ba/F3 [EML4-ALK] [4]): ≤ 50 nM

CC(C)Oc1nc(N2CCN(C)CC2)ccc1Nc1ncc(Cl)c(Nc2ccccc2P(C)(C)=O)n1 [Example 6, (2-((5-chloro-2-((2-isopropoxy-6-(4-methylpiperazin-1-yl)pyridin-3-yl)amino)pyrimidin-4-yl)amino)phenyl)dimethylphosphine oxide]
IC50 (ALK [WT]): 5 to 10 nM | Selectivity parental/ALK[L1196M] (Ba/F3 [EML4-ALK L1196M] [1]): 50~100 | GI50 (Ba/F3 [EML4-ALK L1196M] [2]): 100 to 400 nM | IC50 (ALK [L1196M]): ≤ 5 nM | IC50 (Ba/F3 parental): ≥ 1000 nM | Selectivity parental/ALK (Ba/F3 [EML4-ALK] [3]): 200~400 | GI50 (Ba/F3 [EML4-ALK] [4]): ≤ 50 nM

CC(C)Oc1nc(N(C)CCN(C)C)ccc1Nc1ncc(Cl)c(Nc2ccccc2P(C)(C)=O)n1 [Example 7, (2-((5-chloro-2-((6-((2-(dimethylamino)ethyl)(methyl)amino)-2-isopropoxypyridin-3-yl)amino)pyrimidin-4-yl)amino)phenyl)dimethylphosphine oxide]
IC50 (ALK [WT]): 10 to 50 nM | Selectivity parental/ALK[L1196M] (Ba/F3 [EML4-ALK L1196M] [1]): 50~100 | GI50 (Ba/F3 [EML4-ALK L1196M] [2]): 50 to 100 nM | IC50 (ALK [L1196M]): 5 to 10 nM | IC50 (Ba/F3 parental): ≥ 1000 nM | Selectivity parental/ALK (Ba/F3 [EML4-ALK] [3]): 200~400 | GI50 (Ba/F3 [EML4-ALK] [4]): ≤ 50 nM

CC(C)Oc1nc(N2CCC(N3CCN(C)CC3)CC2)ccc1Nc1ncc(Cl)c(Nc2ccccc2P(C)(C)=O)n1 [Example 8, (2-((5-chloro-2-((2-isopropoxy-6-(4-(4-methylpiperazin-1-yl)piperidin-1-yl)pyridin-3-yl)amino)pyrimidin-4-yl)amino)phenyl)dimethyl phosphine oxide]
IC50 (ALK [WT]): 5 to 10 nM | Selectivity parental/ALK[L1196M] (Ba/F3 [EML4-ALK L1196M] [1]): 50~100 | GI50 (Ba/F3 [EML4-ALK L1196M] [2]): 100 to 400 nM | IC50 (ALK [L1196M]): 5 to 10 nM | IC50 (Ba/F3 parental): ≥ 1000 nM | Selectivity parental/ALK (Ba/F3 [EML4-ALK] [3]): 200~400 | GI50 (Ba/F3 [EML4-ALK] [4]): ≤ 50 nM

CN(C)C1CCN(c2ccc(Nc3ncc(Cl)c(Nc4ccccc4P(C)(C)=O)n3)c(OCC(F)(F)F)n2)CC1 [Example 9, (2-((5-chloro-2-((6-(4-(dimethyaminono)piperidin-1-yl)-2-(2,2,2-trifluoroethoxy)pyridin-3-yl)amino)pyrimidin-4-yl)amino)phenyl)dimethylphosphine oxide]
IC50 (ALK [WT]): ≤ 5 nM | Selectivity parental/ALK[L1196M] (Ba/F3 [EML4-ALK L1196M] [1]): 50~100 | GI50 (Ba/F3 [EML4-ALK L1196M] [2]): 50 to 100 nM | IC50 (ALK [L1196M]): 5 to 10 nM | IC50 (Ba/F3 parental): ≥ 1000 nM | Selectivity parental/ALK (Ba/F3 [EML4-ALK] [3]): 200~400 | GI50 (Ba/F3 [EML4-ALK] [4]): ≤ 50 nM

CN1CCN(c2ccc(Nc3ncc(Cl)c(Nc4ccccc4P(C)(C)=O)n3)c(OCC(F)(F)F)n2)CC1 [Example 10, (2-((5-chloro-2-((6-(4-methylpiperazin-1-yl)-2-(2,2,2-trifluoroethoxy)pyridin-3-yl)amino)pyrimidin-4-yl)amino)phenyl)dimethylphosphine oxide]
IC50 (ALK [WT]): ≤ 5 nM | Selectivity parental/ALK[L1196M] (Ba/F3 [EML4-ALK L1196M] [1]): 50~100 | GI50 (Ba/F3 [EML4-ALK L1196M] [2]): 100 to 400 nM | IC50 (ALK [L1196M]): 5 to 10 nM | IC50 (Ba/F3 parental): ≥ 1000 nM | Selectivity parental/ALK (Ba/F3 [EML4-ALK] [3]): 100~200 | GI50 (Ba/F3 [EML4-ALK] [4]): ≤ 50 nM

CN(C)CCN(C)c1ccc(Nc2ncc(Cl)c(Nc3ccccc3P(C)(C)=O)n2)c(OCC(F)(F)F)n1 [Example 11, (2-((5-chloro-2-((6-((2-(dimethylamino)ethyl)(methyl)amino)-2-(2,2,2-trifluoroethoxy)pyridin-3-yl)amino)pyrimidin-4-yl)amino)phenyl)dimethylphosphine oxide]
IC50 (ALK [WT]): ≤ 5 nM | Selectivity parental/ALK[L1196M] (Ba/F3 [EML4-ALK L1196M] [1]): 50~100 | GI50 (Ba/F3 [EML4-ALK L1196M] [2]): 100 to 400 nM | IC50 (ALK [L1196M]): 10 to 50 nM | IC50 (Ba/F3 parental): ≥ 1000 nM | Selectivity parental/ALK (Ba/F3 [EML4-ALK] [3]): 100~200 | GI50 (Ba/F3 [EML4-ALK] [4]): 50 to 100 nM
